Experimental data from US5393786A, “Method for treating inflammation, ischemia-induced cell damage and muscular dystrophy” (priority 1993, dated 1995).
Structures can show the parent of a compound that is named as a salt. Where two headings read alike, the source gives them in different places.

What was measured:
[1] = test system: adjuvant-induced arthritis (uninjected hind paw); test: Developing Adjuvant-Induced Arthritis Test in Rats; assay type: in vivo, male Lewis-Wistar rats; details: po, 720 h, AUC days 16-30; for inhibition in vivo at 50 mg/kg: 50 mg/kg rat weight × 29, p.o. once daily
[2] = test system: striatal cell layer of the striatum; test: Stroke model in rats (four-vessel occlusion), striatal damage; assay type: in vivo, male Wistar rats; details: scale 0-3, mean ± SE
From the text: (§1) Strokes were produced in rats by occluding the four arteries that supply blood to the brain according to the following procedure. Male Wistar rats (250-280 g; Hilltop Laboratories, Scottsdale, Pa.) were anesthetized with metofane and placed into a stereotaxic instrument. A longitudinal incisio was made on the dorsal surface of the neck. The neck muscles were reflected to expose the dorsal surface of the spinal column. The two vertebral arteries were exposed where they pass through the first cervica vertebra. Both arteries were permanently occluded by the application of electrocautery. After coagulation of the vertebral arteries, the rat was removed from the stereotaxic instrument and the surgical wound was sutured. Two longitudinal incisions were then made on the ventral surface of the neck. The two common carotid arteries were exposed and dissected free from surrounding nerves and connective tissue. Reversible atraumatic clamps, fabricated mainly from silicon rubber tubing, were placed around each carotid artery in a manner such that the vessels were not traumatize or occluded. The clamps were externalized through the ventral neck incision. A suture was also placed through the neck dorsal to the carotids, esophagus and trachea, and tied loosely behind the neck. This suture is tied tightly at the time ischemia is induced in order to restrict collateral circulation reaching the brain through the dorsal muscles of the neck. The surgical wounds were then closed. After the surgery, the rats were allowed to recover for 24 hours (free access to water, but no food during this period).
(§2) On the day of testing, test compounds were administered at various times before stroke induction. Strokes (cerebral ischemia) were induced by tightening the clamps around the carotids, thereby stopping blood flow in the carotids. Rats in which strokes were successfully produced lost the righting reflex and became unresponsive to stimuli. Collateral circulatio through the dorsal neck muscles was then restricted by tightening the previously implanted suture. […] After 30 minutes of ischemia, the carotid clamps wer released, the neck suture was loosened, and blood flow to the brain was restored. Following the period of ischemia, the rats were allowed free access to food and water. Rats were again treated with test compounds at various times after the stroke. On the third day after the stroke the animals were sacrificed and their brains were removed, frozen and sectioned through the striatum and hippocampus. Sections were mounted on glass slides and stained with hematoxylin and eosin.
(§3) Two of the areas of the brain that are most susceptible to ischemia induce damage, both in rats and humans, are the CA1 pyramidal cell layer of the hippocampus and the striatal cell layer of the striatum. In animals that remain unresponsive for the 30 minute period of ischemia, the CA1 pyramidal cell layer and the striatal cell layer are completely destroyed. These layers of cells were examined microscopically in histological sections prepared from the hippocampus and striatum. Brain damage was rated according to the following scale:
(§4) 0=no damage, completely intact cell layer
(§5) 1=mild damage, onethird of cell layer dead
(§6) 2=moderate damage, twothirds of cell layer dead
(§7) 3=severe damage, complete destruction of cell layer
(§8) Damage in 10-12 sections from each brain was assessed in order to obtain a accurate estimate of damage. An average damage score was calculated for each treatment group. Scores from treated groups were compared statistically with scores from control groups which received only the vehicle used to suspend the compounds. The level of significance was determined using the Mann WhitneyU-test.

[3] = test system: hippocampal CA1 pyramidal cell layer; test: Stroke model in rats (four-vessel occlusion), hippocampal CA1 damage; details: for Damage Score, Hippocampus: scale 0-3, mean ± SE
From the text: as §1, §2, §3, §4, §5, §6, §7, §8

[4] = test system: ischemia-induced cell damage caused by middle cerebral artery occlusion; test: Middle Cerebral Artery Occlusion Stroke Model; assay type: in vivo, male spontaneously hypertensive rats; details: for toxicity of higher doses (footnote ++): doses above 10/5 mg/kg i.v.
From the text: Strokes were also produced in rats by occluding the middle cerebral artery according to the following procedure. Male spontaneously hypertensive rats were housed in groups of three to four per cage and allowed free access to food and water. The animals were anesthetized with a mixture of 2.5% halothane and air. The anesthetized rats then underwent the following surgical procedure.
A femoral artery of each rat was cannulated to monitor mean arterial pressure and a jugular cannula was inserted in order to provide a means for administering test compounds intravenously. […] The ventral neck area and the area behind each animal's right eye were shaved and washed with antiseptic solution. The right common carotid artery was dissected free of connective tissue through a midline cervical incision and the vessel permanently occluded with a silk ligature. Next, a 1 cm incision perpendicular to, and bisecting a line between the lateral canthus of the right eye and the external auditory canal, was made to expose the temporalis muscle which was retracted and partially excised. Using a dissecting microscope, the right middle cerebral artery was exposed through a 2 mm burr hole drilled 2-3 mm rostral to the fusion of the zygomatic arch with a squamosal bone. Drilling was done under a continuous drip of a 0.9% saline solution to prevent heat injury of the underlying cortex. The dura was cut and retracted to expose the middle cerebral artery.
This artery was occluded in two ways. The first method of occlusion involved permanent cauterization of the artery so that blood flow through the artery was completely eliminated. The second method of occulsion was only temporary (lasting two hours) and involved clamping the artery with microaneurism clips. Test compounds were administered at various times before, during and after occlusion. Each animal's body temperature was maintained at 37° C. during testing using a rectal thermometer connected to a heating pad.
Twenty-four hours after tandem middle cerbral carotid artery occlusion, the test animals were sacrificed and their brains removed and frozen over dry ice. Coronal sections 20 microns thick were cut at half millimeter intervals in a cryostat at -20° C. and dried on a hot plate at 60° C. The sections were then stained with cresyl violet. […] A total infarct volume was then calculated using a computer program that summed all sectional areas measured multiplied by the interval thickness. The lower the infarcted volume obtained, the lower the amount of cell damage caused by the stroke. The level of significance was obtained using Student's "t-test".

[5] = Rattus norvegicus, read-out: % Inhibition of Uninjected Paw Volume Inflammation, Days 16-30, 25 mg/kg rat weight × 29, p.o. once daily
[6] = 50 mg/kg orally, 2% acacia, time c (30 min pre, 4 h and 24 h postischemia), control 2.71 ± 0.22
[7] = 50 mg/kg orally, 2% acacia, time c (30 min pre, 4 h and 24 h postischemia), control 2.73 ± 0.22
[8] = 100 mg/kg orally, 2% acacia, time c (30 min pre, 4 h and 24 h postischemia), control 1.4 ± 0.3
[9] = 100 mg/kg orally, 2% acacia, time c (30 min pre, 4 h and 24 h postischemia), control 2.5 ± 0.3
[10] = 25 mg/kg rat weight × 29, p.o. once daily, read-out: % Inhibition of Uninjected Paw Volume Inflammation, Days 16-30
[11] = read-out: % Inhibition of Uninjected Paw Volume Inflammation, Days 16-30
[12] = 100 mg/kg orally, 2% acacia, time c (30 min pre, 4 h and 24 h postischemia), control 2.7 ± 0.2
[13] = 100 mg/kg orally, 2% acacia, time a (15 min pre, 4 h and 24 h postischemia), control 2.4 ± 0.4
[14] = 100 mg/kg orally, 2% acacia, time a (15 min pre, 4 h and 24 h postischemia), control 2.9 ± 0.1
[15] = 25 mg/kg orally, water, time a (15 min pre, 4 h and 24 h postischemia), control 2.5 ± 0.3
[16] = 100 mg/kg orally, water, time a (15 min pre, 4 h and 24 h postischemia), control 2.7 ± 0.2

## CNCCc1ccc(O)c(C(C)(C)C)c1.Cl [4-[2-(methylamino)ethyl]-2-(1,1-dimethylethyl)phenol hydrochloride]
[1]; [5]
  inhibition in vivo at 25 mg/kg: 76.6%
[2]; [6]
  Damage Score, Striatum: 1.62 ± 0.35
[3]; [7]
  Damage Score, Hippocampus: 2.78 ± 0.12

## CCN(CC)Cc1cc(C(C)(C)C)c(O)c(C(C)(C)C)c1.Cl [4-[(diethylamino)methyl]-2,6-bis(1,1-dimethylethyl)phenol hydrochloride]
[2]; [8]
  Damage Score, Striatum: 1.7 ± 0.6
[3]; [9]
  Damage Score, Hippocampus: 2.0 ± 0.5

## CC(C)(C)c1cc(CN2CCOCC2)cc(C(C)(C)C)c1O [4-(4-morpholinylmethyl)-2,6-bis(1,1-dimethylethyl)phenol]
[1]; [10]
  inhibition in vivo at 25 mg/kg: 40.6%
[1]; [11]
  inhibition in vivo at 50 mg/kg: 71.1%

## CNCCc1cc(C(C)(C)C)c(O)c(C(C)(C)C)c1.Cl [4-[2-(methylamino)ethyl]-2,6-bis(1,1-dimethylethyl)phenol hydrochloride]
[1]; [5]
  inhibition in vivo at 25 mg/kg: 72.2%
[4]; dose of 50/10 i.v., permanent occlusion
  hypothermia (footnote +++): severe hypothermia
[4]; permanent occlusion, 30/5 mg/kg i.v. (per hour), saline, time c, control 129 ± 14
  Infarct Volume: 130 ± 16 (mm)^3

## CCNC(C)c1cc(C(C)(C)C)c(O)c(C(C)(C)C)c1.Cl (stereo not shown) [4-[1-(ethylamino)ethyl]-2,6-bis(1,1-dimethylethyl)phenol hydrochloride]
[2]; 50 mg/kg orally, 2% acacia, time c (30 min pre, 4 h and 24 h postischemia), control 1.9 ± 0.4, only 7 rats because of toxicity
  Damage Score, Striatum: 1.5 ± 0.5
[4]; temporary occlusion, 10% DMSO in saline
  toxicity of higher doses (footnote ++): higher doses were toxic in this model
[4]; temporary occlusion, 10/5 mg/kg i.v. (per hour), 10% DMSO in saline, time d, control 106 ± 15
  Infarct Volume: 92 ± 10 (mm)^3
[3]; 50 mg/kg orally, 2% acacia, time c, data on only 7 rats
  toxicity in stroke model (footnote ****): data obtained on only 7 rats because of toxicity problems
[3]; 50 mg/kg orally, 2% acacia, time c (30 min pre, 4 h and 24 h postischemia), control 2.6 ± 0.3, only 7 rats because of toxicity
  Damage Score, Hippocampus: 0.9 ± 0.4

## CN(Cc1cc(C(C)(C)C)c(O)c(C(C)(C)C)c1)Cc1cc(C(C)(C)C)c(O)c(C(C)(C)C)c1 [4-{[N-methyl-N-(4-hydroxy-3,5-bis(1,1-dimethylethyl)benzyl)amino]methyl}-2,6-bis(1,1-dimethylethyl)phenol]
[1]; [11]
  inhibition in vivo at 50 mg/kg: 77%
[2]; [12]
  Damage Score, Striatum: 2.4 ± 0.4
[3]; [12]
  Damage Score, Hippocampus: 2.9 ± 0.2

## CN(C)C(=O)c1cc(C(C)(C)C)c(O)c(C(C)(C)C)c1 [N,N-dimethyl-3,5-bis(1,1-dimethylethyl)-4-hydroxybenzamide]
[1]; [11]
  inhibition in vivo at 50 mg/kg: 64.4%

## CN(Cc1cc(C(C)(C)C)c(O)c(C(C)(C)C)c1)Cc1cc(C(C)(C)C)c(O)c(C(C)(C)C)c1.Cl [4-{[N-methyl-N-(4-hydroxy-3,5-bis(1,1-dimethylethyl)benzyl)amino]methyl}-2,6-bis(1,1-dimethylethyl)phenol hydrochloride]
[2]; [12]
  Damage Score, Striatum: 1.8 ± 0.4
[3]; [12]
  Damage Score, Hippocampus: 2.9 ± 0.1

## CN(C)Cc1cc(C(C)(C)C)c(O)c(C(C)(C)C)c1 [4-[(dimethylamino)methyl]-2,6-bis(1,1-dimethylethyl)phenol methanesulfonate]
[2]; [13]
  Damage Score, Striatum: 0.8 ± 0.3
[4]; temporary occlusion, 30/5 mg/kg i.v. (per hour), saline, time d (15 min before clamp removal, then 24 h), control 97 ± 10
  Infarct Volume: 69 ± 9 (mm)^3
[3]; [14]
  Damage Score, Hippocampus: 0.9 ± 0.3

## CCCN(CCC)Cc1cc(C(C)(C)C)c(O)c(C(C)(C)C)c1.Cl [4-[(dipropylamino)methyl]-2,6-bis(1,1-dimethylethyl)phenol hydrochloride]
[1]; [11]
  inhibition in vivo at 50 mg/kg: 64.4%
[2]; [8]
  Damage Score, Striatum: 1.2 ± 0.4
[4]; temporary occlusion, 20/5 mg/kg i.v. (per hour), saline, time d, control 123 ± 14
  Infarct Volume: 143 ± 12 (mm)^3
[3]; [9]
  Damage Score, Hippocampus: 1.0 ± 0.4

## CCN(C)Cc1cc(C(C)(C)C)c(O)c(C(C)(C)C)c1 [4-[(N-ethyl-N-methylamino)methyl]-2,6-bis(1,1-dimethylethyl)phenol methanesulfonate]
[1]; [10]
  inhibition in vivo at 25 mg/kg: 26%
[2]; [13]
  Damage Score, Striatum: 1.1 ± 0.4
[3]; [14]
  Damage Score, Hippocampus: 1.1 ± 0.5

## CCCNCc1cc(C(C)(C)C)c(O)c(C(C)(C)C)c1.Cl [4-[(n-propylamino)methyl]-2,6-bis(1,1-dimethylethyl)phenol hydrochloride]
[2]; 50 mg/kg orally, distilled water, time c (30 min pre, 4 h and 24 h postischemia), control 2.53 ± 0.22
  Damage Score, Striatum: 1.05 ± 0.33
[3]; 50 mg/kg orally, distilled water, time c (30 min pre, 4 h and 24 h postischemia), control 2.96 ± 0.03
  Damage Score, Hippocampus: 1.48 ± 0.34

## CC(C)(C)c1cc(CN2CCCC2)cc(C(C)(C)C)c1O.Cl [4-(1-pyrrolidinomethyl)-2,6-bis(1,1-dimethylethyl)phenol hydrochloride]
[2]; [8]
  Damage Score, Striatum: 1.5 ± 0.4
[3]; [9]
  Damage Score, Hippocampus: 1.2 ± 0.5

## CN(C)CCc1cc(C(C)(C)C)c(O)c(C(C)(C)C)c1.Cl [4-[2-(dimethylamino)ethyl]-2,6-bis(1,1-dimethylethyl)phenol hydrochloride]
[2]; [15]
  Damage Score, Striatum: 0.9 ± 0.3
[2]; 50 mg/kg orally, water, time a (15 min pre, 4 h and 24 h postischemia), control 2.8 ± 0.2
  Damage Score, Striatum: 0.3 ± 0.2
[2]; [12]
  Damage Score, Striatum: 0.0 ± 0.0
[2]; [16]
  Damage Score, Striatum: 0.1 ± 0.0
[4]; permanent occlusion, saline
  toxicity of higher doses (footnote ++): higher doses were toxic in this model
[4]; permanent occlusion, 10/5 mg/kg i.v. (per hour), saline, time c, control 154 ± 11
  Infarct Volume: 161 ± 17 (mm)^3
[4]; temporary occlusion, 20/5 mg/kg i.v. (per hour), saline, time d, control 84.7 ± 6.4
  Infarct Volume: 77.6 ± 5.5 (mm)^3
[3]; [15]
  Damage Score, Hippocampus: 1.6 ± 0.3
[3]; 50 mg/kg orally, water, time a (15 min pre, 4 h and 24 h postischemia), control 3.0 ± 0.0
  Damage Score, Hippocampus: 0.8 ± 0.4
[3]; [12]
  Damage Score, Hippocampus: 0.2 ± 0.2
[3]; [16]
  Damage Score, Hippocampus: 0.2 ± 0.2

## CC(C)(C)c1cc(C(=O)Nc2ccccc2Cl)cc(C(C)(C)C)c1O [N-2-chlorophenyl-3,5-bis(1,1-dimethylethyl)-4-hydroxy-benzamide]
[1]; [11]
  inhibition in vivo at 50 mg/kg: 8.7%

## CC(C)NCc1cc(C(C)(C)C)c(O)c(C(C)(C)C)c1 [4-[(isopropylamino)methyl]-2,6-bis(1,1-dimethylethyl)-phenol hydrochloride]
[1]; [10]
  inhibition in vivo at 25 mg/kg: 4.9%

## CN(C)CCc1cc(C(C)(C)C)c(O)c(C(C)(C)C)c1 [4-[2-(dimethylamino)ethyl]-2,6-bis(1,1-dimethylethyl)phenol]
[2]; [12]
  Damage Score, Striatum: 0.0 ± 0.0
[3]; [12]
  Damage Score, Hippocampus: 0.0 ± 0.0

## CCNCc1cc(C(C)(C)C)c(O)c(C(C)(C)C)c1 [4-[(ethylamino)methyl]-2,6-bis(1,1-dimethylethyl)phenol nitrate]
[2]; 50 mg/kg orally, 2% acacia, time c (30 min pre, 4 h and 24 h postischemia), control 2.30 ± 0.32
  Damage Score, Striatum: 1.26 ± 0.40
[3]; 50 mg/kg orally, 2% acacia, time c (30 min pre, 4 h and 24 h postischemia), control 2.90 ± 0.04
  Damage Score, Hippocampus: 1.81 ± 0.36

## CC(C)(C)NCc1cc(C(C)(C)C)c(O)c(C(C)(C)C)c1.Cl [4-{[(1,1-dimethylethyl)amino]methyl}-2,6-bis(1,1dimethylethyl)phenol hydrochloride]
[1]; [10]
  inhibition in vivo at 25 mg/kg: 3.9%
[2]; [6]
  Damage Score, Striatum: 0.75 ± 0.35
[3]; [7]
  Damage Score, Hippocampus: 1.72 ± 0.43
